Assay results as given in US12454541B2, “Reagent for measuring oxygen concentration in cell and tissue” (NATIONAL UNIVERSITY CORPORATION GUNMA UNIVERSITY, priority 2019, dated 2025).

Tests used:
[1] = Photophysical properties of iridium complexes in a solution (absorption, phosphorescence spectrum, quantum yield, lifetime); assay type: physicochemical; conditions: for maximum absorption wavelength λabs / maximum emission (phosphorescence) wavelength λphos / molecular extinction coefficient ε: in acetonitrile at room temperature; for molecular extinction coefficient ε: at λabs; for phosphorescence lifetime τp / phosphorescence quantum yield Φp: in acetonitrile, under deoxidized conditions
Text: Photophysical properties of the phosphorescence of the compound represented by General Formula (I) or (II), such as the maximum absorption/phosphorescence wavelength, the phosphorescence quantum yield (Φp), and the phosphorescence lifetime (τp), can be measured by known measurement methods. For example, the maximum absorption/phosphorescence wavelength can be measured using a spectrophotometer or the like, and the phosphorescence quantum yield can be measured using a luminescence quantum yield measurement apparatus or the like, for a sample in which the compound represented by General Formula (I) or (II) is dissolved in a solvent or the like. Regarding the phosphorescence lifetime, the […] (τp) of the compound in each solvent can be measured using a phosphorescence lifetime measurement apparatus.
Absorption spectrum: ultraviolet and visible spectrophotometer, Ubest-550; manufactured by JASCO Corporation
Phosphorescence spectrum: multichannel spectroscope, PMA-12; manufactured by Hamamatsu Photonics K. K.
Phosphorescence quantum yield: luminescence quantum yield measurement apparatus, C9920-01; manufactured by Hamamatsu Photonics K. K.
Phosphorescence lifetime: compact fluorescence lifetime measurement apparatus, Quantaurus-Tau; manufactured by Hamamatsu Photonics K.K.
The maximum absorption wavelength (λabs) was found at 473 to 499 nm, and the molecular extinction coefficient (ε/dm^3 mol^−1 cm^−1) was not less than 70,000 dm^3 mol^−1 cm^−1. The maximum emission wavelength (λphos) was found at 577 to 622 nm. […] Therefore, the observed luminescence can be identified as a phosphorescence. […] These are higher quantum yields compared to those of the iridium complexes that have been reported so far.

kidney of a mouse = assay: Phosphorescence intensity and lifetime imaging (PLIM) of kidney of mouse after tail vein administration; assay type: in vivo; conditions: mouse under anesthesia, 250 nmol, excitation 488 nm
liver of a mouse = assay: Phosphorescence lifetime imaging (PLIM) of liver of mouse after tail vein administration; assay type: in vivo; conditions: mouse under anesthesia, 250 nmol, excitation 488 nm
Procedure: Subsequently, the in vivo dynamics was evaluated. In the present experiment, a microscope capable of acquiring a phosphorescence lifetime image as well as a phosphorescence intensity image (PLIM: phosphorescence lifetime imaging microscope) was used. To the tail vein of a mouse under anesthesia, 250 μL of a solution of C6-MEDA or C6-BEDA (physiological saline:DMSO=9:1, v/v, 250 nmol) was administered to carry out a phosphorescence intensity imaging experiment and a phosphorescence lifetime imaging experiment (excitation wavelength, 488 nm; monitoring wavelength, 510 to 560 nm). […] The liver is composed of functional units called hepatic lobules. Arteries and portal veins are present in the periphery of hepatic lobules, and veins are present in the center. It has thus been pointed out that there is a gradient of the oxygen partial pressure from the periphery to the center. […] It can be seen that the area with a short lifetime (which is blue in the color image) corresponds to the periphery of hepatic lobules, and that the area with a long lifetime (which is orange in the color image) corresponds to the area near the central vein.

HeLa cells = assay: Phosphorescence imaging and microplate-reader phosphorescence intensity of HeLa cells with added iridium complex; assay type: cell-based; conditions: for phosphorescence intensity in imaging under oxygen partial pressure of 2.5% (intracellular oxygen responsiveness): HeLa cells, 500 nM, 2 hours culture, 2.5% vs 21% oxygen; for phosphorescence intensity in HeLa cells (comparison between complexes): final concentration 500 nM, 2 hours of culture, imaging and microplate reader
Procedure: Luminescence micrograph: inverted research microscope, IX-71; manufactured by Olympus Corporation
(§1) Luminescence intensity, luminescence lifetime: microplate reader, Infinite 200 PRO; manufactured by TECAN.
Using the iridium complexes developed, imaging experiments for living cells were carried out. […] For quantitative evaluation, the phosphorescence intensity was measured using a microplate reader (FIG. 4).
For C6-BEDA and C545T-BEDA, intracellular oxygen responsiveness was evaluated. […] Further, as a result of measurement of the phosphorescence intensity using a microplate reader, it was shown that the phosphorescence intensity increases 3-fold or more under an oxygen partial pressure of 2.5% (FIG. 4).

HT-29 cells = assay: Tracing of intracellular oxygen by phosphorescence lifetime of C6-BEDA in HT-29 cells using a plate reader; assay type: cell-based; conditions: for change of phosphorescence lifetime of C6-BEDA in cells after additive: C6-BEDA 500 nM, plate sealed with oil, excitation 480 nm, measurement 600 nm; for change of phosphorescence lifetime of C6-BEDA in cells after additive / change of intracellular oxygen partial pressure after additive: antimycin A 10 μM or FCCP 1 μM; for change of intracellular oxygen partial pressure after additive: converted from C6-BEDA phosphorescence lifetime with calibration curve
Procedure: as §1
Using a luminescence lifetime measurement mode of a commercially available plate reader, changes in the oxygen concentration in cells were traced. In a 96-well plate, HT-29 cells were plated at 50,000 cells/well, and cultured for 48 hours. Thereafter, C6-BEDA was added thereto to a final concentration of 500 nM, and culture was carried out for 2 hours. […] After sealing the plate with oil, the phosphorescence lifetime was measured using a plate reader (excitation wavelength, 480 nm; measurement wavelength, 600 nm; FIG. 6). The phosphorescence lifetime (τp/μs) was calculated using the following equation. τp=30/ln(W1/W2)
Here, W1 and W2 are the integrated values of the phosphorescence intensity obtained during the periods of 10 to 30 μs and 40 to 60 μs after the pulse excitation. In the cells to which no additive was added, the phosphorescence lifetime increased with time. […] This is due to the fact that intracellular oxygen consumption was stopped by the respiration inhibitory action of antimycin A, while intracellular oxygen consumption increased by the respiration-promoting action of FCCP. In order to convert the measured phosphorescence lifetime to the oxygen partial pressure, preparation of a calibration curve is necessary. Here, the calibration curve was prepared by measuring the phosphorescence lifetime at different oxygen partial pressures in the plate reader (pO2=1521.03225 exp(−τp/[…])) (FIG. 7).

Row | Molecule | maximum absorption wavelength λabs [1] [nm] | maximum emission (phosphorescence) wavelength λphos [1] [nm] | molecular extinction coefficient ε [1] | phosphorescence lifetime τp [1] [μs] | phosphorescence quantum yield Φp [1] | imaging of kidney (kidney of a mouse) | phosphorescence lifetime imaging of liver (liver of a mouse) | phosphorescence intensity in imaging under oxygen partial pressure of 2.5% (intracellular oxygen responsiveness) (HeLa cells) | phosphorescence intensity in HeLa cells (comparison between complexes) (HeLa cells) | suitability as probe for intracellular oxygen concentration (HT-29 cells; 500 nM, plate reader) | change of phosphorescence lifetime of C6-BEDA in cells after additive (HT-29 cells) | change of intracellular oxygen partial pressure after additive (HT-29 cells)
1 | Bis[3-(benzo[d]thiazol-2-yl)-7-(diethylamino)-2H-chromen-2-one-κN, κC^4]N^1,N^2-dimethylethane-1,2-diamine iridium(III) hexafluorophosphate [C6-MEDA] | 481 | 593 | 103,000 dm^3mol^−1cm^−1 | 38.7 | 0.75 | Renal tubular cells could be clearly imaged | – | – | – | – | – | –
2 | Bis[3-(benzo[d]thiazol-2-yl)-7-(diethylamino)-2H-chromen-2-one-κN, κC^4]N^1,N^2-dibutylethane-1,2-diamine iridium(III) hexafluorophosphate [C6-BEDA] | 482 | 594 | 106,000 dm^3mol^−1cm^−1 | 34.8 | 0.65 | – | the presence of the gradient of the phosphorescence lifetime can be seen | remarkable increases in the phosphorescence intensity | exhibit higher phosphorescence intensities | capable of real-time tracing of changes in the intracellular oxygen concentration | – | –
3 | CC1(C)CCN2CCC(C)(C)c3c2c1cc1[c-]c(-c2nc4ccccc4s2)c(=O)oc31.CC1(C)CCN2CCC(C)(C)c3c2c1cc1[c-]c(-c2nc4ccccc4s2)c(=O)oc31.CNCCNC.F[P-](F)(F)(F)(F)F.[Ir+3] [C545T-MEDA, Bis[10-(benzo[d]thiazol-2-yl)-1,1,7,7-tetramethyl-2,3,6,7-tetrahydro-1H-pyrano [2,3-f]pyrido[3,2,1-ij]quinolin-11(5H)-one-κN, κC^4]N^1,N^2-dimethylethane-1,2-diamine iridium(III) hexafluorophosphate] | 496 | 621 | 77,000 dm^3mol^−1cm^−1 | 46.5 | 0.36 | – | – | – | – | – | – | –
4 | N#CC(C#N)=NNc1ccc(OC(F)(F)F)cc1 [FCCP] | – | – | – | – | – | – | – | – | – | – | remarkably increased | rapid decrease in the oxygen partial pressure
5 | antimycin A | – | – | – | – | – | – | – | – | – | – | hardly changed | slight increase in the oxygen partial pressure
6 | CC1(C)CCN2CCC(C)(C)c3c2c1cc1[c-]c(-c2nc4ccccc4s2)c(=O)oc31.CC1(C)CCN2CCC(C)(C)c3c2c1cc1[c-]c(-c2nc4ccccc4s2)c(=O)oc31.CCCCNCCNCCCC.F[P-](F)(F)(F)(F)F.[Ir+3] [C545T-BEDA, Bis[10-(benzo[d]thiazol-2-yl)-1,1,7,7-tetramethyl-2,3,6,7-tetrahydro-1H-pyrano [2,3-f]pyrido[3,2,1-ij]quinolin-11(5H)-one-κN, κC^4]N^1,N^2-dibutylethane-1,2-diamine iridium(III) hexafluorophosphate] | 499 | 622 | 90,600 dm^3mol^−1cm^−1 | 53.7 | 0.40 | – | – | remarkable increases in the phosphorescence intensity | exhibit higher phosphorescence intensities | – | – | –
7 | Bis[3-(benzo[d]thiazol-2-yl)-7-(diethylamino)-2H-chromen-2-one-κN, κC^4]ethane-1,2-diamine iridium(III) hexafluorophosphate [C6-EDA] | 473 | 577 | 91,700 dm^3mol^−1cm^−1 | 38.9 | 0.82 | – | – | – | – | – | – | –
